Laboratory results as given in PubChem BioAssay AID2060511 (Molecular Pharmacology Branch, DTP, NCI, 2025).

System: 422866-222-R5-J1-PDC spheroids with HUVEC/MSC, viability
Experiment: Anticancer human tumor 422866-222-R5-J1-PDC patient-derived pancreatic adenocarcinoma cell line growth inhibition [GQUAD]
Conditions: for IC50: curve of first compound; for viability, T/C: stronger effect = lower value; active = viability on the fitted dose curve at most 10% of control; inactive = the rest
Outline: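 Multi-cell-type spheroids of tumor cells with HUVEC and mesenchymal stem cells, treated with drug combinations. Concentrations descend in half-log steps from near clinical Cmax, or from 10 microM where Cmax is unknown; viability read-out.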
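Also: spheroids exposed to compounds for seven days before reading.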
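For viability, T/C in this document: percent viability relative to DMSO vehicle control taken as 100%.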

C=CCn1c(=O)c2cnc(Nc3ccc(N4CCN(C)CC4)cc3)nc2n1-c1cccc(C(C)(C)O)n1 + CN(C)c1ccc(Nc2c3ccc(NC(=O)CCN4CCCC4)cc3nc3cc(NC(=O)CCN4CCCC4)ccc23)cc1
1710 nM: IC50 (second compound 10 µM)
548 nM: IC50 (second compound 1 µM)
459 nM: IC50 (second compound 0.0316 µM)
682 nM: IC50 (second compound 0.1 µM)
601 nM: IC50 (second compound 3.16 µM)
489 nM: IC50 (second compound 0.316 µM)
inactive: viability, T/C (second compound 0.0316 µM, first compound 0.0316 µM) 109% | viability, T/C (second compound 0.0316 µM, first compound 0.1 µM) 123% | viability, T/C (second compound 0.0316 µM, first compound 0.316 µM) 56.4% | viability, T/C (second compound 0.0316 µM, first compound 1 µM) 37.7% | viability, T/C (second compound 0.0316 µM, first compound 3.16 µM) 40.3% | viability, T/C (second compound 0.0316 µM, first compound 10 µM) 31.5% | viability, T/C (second compound 0.1 µM, first compound 0.0316 µM) 106% | viability, T/C (second compound 0.1 µM, first compound 0.1 µM) 96.1% | viability, T/C (second compound 0.1 µM, first compound 0.316 µM) 61.5% | viability, T/C (second compound 0.1 µM, first compound 1 µM) 47.3% | viability, T/C (second compound 0.1 µM, first compound 3.16 µM) 34.2% | viability, T/C (second compound 0.1 µM, first compound 10 µM) 37.5% | viability, T/C (second compound 0.316 µM, first compound 0.0316 µM) 128% | viability, T/C (second compound 0.316 µM, first compound 0.1 µM) 95.1% | viability, T/C (second compound 0.316 µM, first compound 0.316 µM) 57.1% | viability, T/C (second compound 0.316 µM, first compound 1 µM) 38.4% | viability, T/C (second compound 0.316 µM, first compound 3.16 µM) 34.9% | viability, T/C (second compound 0.316 µM, first compound 10 µM) 39.5% | viability, T/C (second compound 1 µM, first compound 0.0316 µM) 95.3% | viability, T/C (second compound 1 µM, first compound 0.1 µM) 77.2% | viability, T/C (second compound 1 µM, first compound 0.316 µM) 62.3% | viability, T/C (second compound 1 µM, first compound 1 µM) 35.4% | viability, T/C (second compound 1 µM, first compound 3.16 µM) 39.6% | viability, T/C (second compound 1 µM, first compound 10 µM) 34.2% | viability, T/C (second compound 3.16 µM, first compound 0.0316 µM) 99.7% | viability, T/C (second compound 3.16 µM, first compound 0.1 µM) 87.2% | viability, T/C (second compound 3.16 µM, first compound 0.316 µM) 56.7% | viability, T/C (second compound 3.16 µM, first compound 1 µM) 42% | viability, T/C (second compound 3.16 µM, first compound 3.16 µM) 48.2% | viability, T/C (second compound 3.16 µM, first compound 10 µM) 42.6% | viability, T/C (second compound 10 µM, first compound 0.0316 µM) 95% | viability, T/C (second compound 10 µM, first compound 0.1 µM) 80% | viability, T/C (second compound 10 µM, first compound 0.316 µM) 62.3% | viability, T/C (second compound 10 µM, first compound 1 µM) 45.5% | viability, T/C (second compound 10 µM, first compound 3.16 µM) 56.3% | viability, T/C (second compound 10 µM, first compound 10 µM) 45.1%
